Tests used:
Assay type in all cases: in vivo
IPOHE [1] = experiment: Post-emergence biological efficacy; settings: Ipomoea hederacea, 312 h, evaluated after 13 days, read-out: damage to plant (100=total damage to plant; 0=no damage to plant), IPOHE
Method: (§1) Post-Emergence Biological Efficacy
(§2) Seeds of weeds and/or crops were sown in standard soil in pots. After cultivation for 8 days under controlled conditions in a glasshouse (at 24/16° C., day/night; 14 hours light; 65% humidity), the plants were sprayed with an aqueous spray solution derived from the formulation of the technical active ingredient in acetone/water (50:50) solution containing 0.5% Tween 20 (polyoxyethylene sorbitan monolaurate, CAS RN 9005-64-5) to give the desired final dose of test compound.
(§3) The test plants were then grown on under controlled conditions in a glasshouse (at 24/16° C., day/night; 14 hours light; 65% humidity) and watered twice daily. After 13 days the test was evaluated (100=total damage to plant; 0=no damage to plant).

LOLPE [2] = experiment: Post-emergence biological efficacy; settings: 312 h, evaluated after 13 days, read-out: damage to plant (100=total damage to plant; 0=no damage to plant), LOLPE
Method: as §1, §2, §3

ECHCG [3] = experiment: Post-emergence biological efficacy; settings: Echinochloa crus-galli, 312 h, evaluated after 13 days, read-out: damage to plant (100=total damage to plant; 0=no damage to plant), ECHCG
Method: as §1, §2, §3

EPHHL [4] = experiment: Post-emergence biological efficacy; settings: 312 h, evaluated after 13 days, read-out: damage to plant (100=total damage to plant; 0=no damage to plant), EPHHL
Method: as §1, §2, §3

AMAPA [5] = experiment: Post-emergence biological efficacy; settings: 312 h, evaluated after 13 days, read-out: damage to plant (100=total damage to plant; 0=no damage to plant), AMAPA
Method: as §1, §2, §3

CHEAL = experiment: Post-emergence biological efficacy; settings: Chenopodium album, 312 h, evaluated after 13 days, read-out: damage to plant (100=total damage to plant; 0=no damage to plant), CHEAL
Method: as §1, §2, §3

DIGSA = experiment: Post-emergence biological efficacy; settings: Digitaria sanguinalis, 312 h, evaluated after 13 days, read-out: damage to plant (100=total damage to plant; 0=no damage to plant), DIGSA
Method: as §1, §2, §3

SETFA [6] = experiment: Post-emergence biological efficacy; settings: Setaria faberi, 312 h, evaluated after 13 days, read-out: damage to plant (100=total damage to plant; 0=no damage to plant), SETFA
Method: as §1, §2, §3

ELEIN = experiment: Post-emergence biological efficacy; settings: 312 h, evaluated after 13 days, read-out: damage to plant (100=total damage to plant; 0=no damage to plant), ELEIN
Method: as §1, §2, §3

IPOHE [7] = experiment: Pre-emergence biological efficacy; settings: Ipomoea hederacea, 312 h, evaluated after 13 days, read-out: damage to plant (100=total damage to plant; 0=no damage to plant), IPOHE
Method: (§4) Pre-Emergence Biological Efficacy
as §2, with “one day” for “8 days”
(§5) The test plants were then grown under controlled conditions in the glasshouse (at 24/16° C., day/night; 14 hours light; 65% humidity) and watered twice daily. After 13 days the test was evaluated (100=total damage to plant; 0=no damage to plant).

LOLPE [8] = experiment: Pre-emergence biological efficacy; settings: 312 h, evaluated after 13 days, read-out: damage to plant (100=total damage to plant; 0=no damage to plant), LOLPE
Method: as §4
as §2, with “one day” for “8 days”
as §5

ECHCG [9] = experiment: Pre-emergence biological efficacy; settings: Echinochloa crus-galli, 312 h, evaluated after 13 days, read-out: damage to plant (100=total damage to plant; 0=no damage to plant), ECHCG
Method: as §4
as §2, with “one day” for “8 days”
as §5

EPHHL [10] = experiment: Pre-emergence biological efficacy; settings: 312 h, evaluated after 13 days, read-out: damage to plant (100=total damage to plant; 0=no damage to plant), EPHHL
Method: as §4
as §2, with “one day” for “8 days”
as §5

AMAPA [11] = experiment: Pre-emergence biological efficacy; settings: 312 h, evaluated after 13 days, read-out: damage to plant (100=total damage to plant; 0=no damage to plant), AMAPA
Method: as §4
as §2, with “one day” for “8 days”
as §5

SETFA [12] = experiment: Pre-emergence biological efficacy; settings: Setaria faberi, 312 h, evaluated after 13 days, read-out: damage to plant (100=total damage to plant; 0=no damage to plant), SETFA
Method: as §4
as §2, with “one day” for “8 days”
as §5

| SMILES | pest or weed control at 250 g/ha (IPOHE [1]) [%] | pest or weed control at 250 g/ha (LOLPE [2]) [%] | pest or weed control at 250 g/ha (ECHCG [3]) [%] | pest or weed control at 250 g/ha (EPHHL [4]) [%] | pest or weed control at 250 g/ha (AMAPA [5]) [%] | pest or weed control at 250 g/ha (CHEAL) [%] | pest or weed control at 250 g/ha (DIGSA) [%] | pest or weed control at 250 g/ha (SETFA [6]) [%] | pest or weed control at 250 g/ha (ELEIN) [%] | pest or weed control at 250 g/ha (IPOHE [7]) [%] | pest or weed control at 250 g/ha (LOLPE [8]) [%] | pest or weed control at 250 g/ha (ECHCG [9]) [%] | pest or weed control at 250 g/ha (EPHHL [10]) [%] | pest or weed control at 250 g/ha (AMAPA [11]) [%] | pest or weed control at 250 g/ha (SETFA [12]) [%] |
| --- | --- | --- | --- | --- | --- | --- | --- | --- | --- | --- | --- | --- | --- | --- | --- |
| CC(=O)OCC1(C)CC(c2cc(-n3c(=O)n(C)c(=S)n(C)c3=O)c(F)cc2Cl)=NO1 (stereo not drawn) [Compound 51, [3-[2-Chloro-5-(3,5-dimethyl-2,6-dioxo-4-thioxo-1,3,5-triazinan-1-yl)-4-fluoro-phenyl]-5-methyl-4H-isoxazol-5-yl]methyl acetate] | 90 | 50 | 30 | 100 | 100 | 100 | 100 | 100 | 80 | 80 | 90 | 90 | 100 | 100 | 100 |
| Cn1c(=S)n(C)c(=O)n(-c2cc(C3=NOC(C)(C(=O)O)C3)c(Cl)cc2Cl)c1=O (stereo not drawn) [Compound 56, 3-[2,4-dichloro-5-(3,5-dimethyl-2,6-dioxo-4-thioxo-1,3,5-triazinan-1-yl)-phenyl]-5-methyl-4H-isoxazole-5-carboxylic acid] | 90 | 30 | 90 | 80 | 100 | 90 | 80 | 90 | 80 | 30 | 10 | 0 | 10 | 90 | 10 |
| CCOC(=O)C1(C)CC(c2cc(-n3c(=O)n(C)c(=S)n(C)c3=O)c(Cl)cc2Cl)=NO1 (stereo not drawn) [Compound 58, Ethyl 3-[2,4-dichloro-5-(3,5-dimethyl-2,6-dioxo-4-thioxo-1,3,5-triazinan-1-yl)phenyl]-5-methyl-4H-isoxazole-5-carboxylate] | 100 | 30 | 90 | 70 | 90 | 90 | 80 | 90 | 90 | 60 | 0 | 0 | 0 | 90 | 0 |
| COC(=O)C1(C)ON=C(c2cc(-n3c(=O)n(C)c(=S)n(C)c3=O)c(F)cc2Cl)C1C (stereo not drawn) [Compound 145, Methyl 3-[2-chloro-5-(3,5-dimethyl-2,6-dioxo-4-thioxo-1,3,5-triazinan-1-yl)-4-fluoro-phenyl]-4,5-dimethyl-4H-isoxazole-5-carboxylate] | 100 | 100 | 100 | 100 | 100 | 100 | 100 | 100 | 100 | 100 | 90 | 90 | 100 | 100 | 100 |

Reference: US12202821B2, “Herbicidal compounds” (SYNGENTA CROP PROTECTION AG, priority 2019, dated 2025)
